The target in test [1] is T1, isolated recombinant JAK1 kinase domain (Homo sapiens, UniProt P23458).
T1 construct: isolated recombinant JAK1 and JAK2 kinase domain
In words: JAK enzyme assay, JAK1 kinase domain (Caliper LabChip). In kind it is biochemical. To be noted: 1.5 nM JAK1, ATP 25 μM, Morrison tight binding model. Summed up: (§1)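 Ki values were obtained by Morrison tight-binding analysis with ATP-competitive correction, Ki=Ki,app/(1+[ATP]/Km,app). Phosphorylated versus total fluorescent JAK3-derived peptide was quantified on a Caliper LabChip. Kinase reactions with the isolated recombinant domains ran 30 min at 22 °C before EDTA quench (50 mM final).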

Test [2] deals with JAK1-dependent STAT6 phosphorylation downstream of IL-13 stimulation in BEAS-2B cells. Put plainly: JAK1 pathway assay in cell lines: IL-13 p-STAT6 BEAS-2B. In kind it is cell-based. The settings on record: BEAS-2B human bronchial epithelial cells, 1 hr compound, IL-13 15 min, MSD readout. The procedure, abridged: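 Phospho-STAT6 read by MSD electrochemiluminescence in lysates of BEAS-2B cells kept in complete growth medium. Cells were pretreated 1 hr at 37 °C with compound (0.2% DMSO final) and stimulated 15 min with IL-13 at its EC90; EC50 is the concentration halving signal versus DMSO.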

Test [3] deals with T2, isolated recombinant JAK2 kinase domain (Homo sapiens, UniProt O60674).
T2 construct: isolated recombinant JAK1 and JAK2 kinase domain
In words: JAK enzyme assay, JAK2 kinase domain (Caliper LabChip). The class given is biochemical. To be noted: 0.2 nM JAK2, ATP 25 μM, Morrison tight binding model. Summed up: as §1

T1 sequence (P23458 875-1153 limits assumed): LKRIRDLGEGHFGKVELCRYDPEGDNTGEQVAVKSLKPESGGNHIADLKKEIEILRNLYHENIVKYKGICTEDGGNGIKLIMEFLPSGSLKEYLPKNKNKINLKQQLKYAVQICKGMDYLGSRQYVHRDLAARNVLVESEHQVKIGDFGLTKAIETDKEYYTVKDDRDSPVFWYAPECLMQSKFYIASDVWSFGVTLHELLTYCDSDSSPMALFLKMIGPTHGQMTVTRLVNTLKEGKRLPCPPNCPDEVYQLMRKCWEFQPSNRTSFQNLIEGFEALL
T2 sequence (O60674 849-1124 limits assumed): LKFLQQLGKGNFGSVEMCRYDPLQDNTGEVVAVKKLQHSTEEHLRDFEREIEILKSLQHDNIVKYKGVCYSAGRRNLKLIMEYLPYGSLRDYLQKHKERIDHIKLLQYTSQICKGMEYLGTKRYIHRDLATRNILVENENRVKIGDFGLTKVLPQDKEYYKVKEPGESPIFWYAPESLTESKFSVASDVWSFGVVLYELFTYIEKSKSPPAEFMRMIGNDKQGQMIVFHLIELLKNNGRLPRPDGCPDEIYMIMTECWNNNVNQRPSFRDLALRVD

Consider `CC(C)(C#N)CCN1CCN(C(=O)Cn2cc(Nc3nc4c(N5CC(CC#N)(n6cc(C(F)(F)F)cn6)C5)cccn4n3)cn2)CC1` [Example 107, 4-[4-[2-[4-[[8-[3-(cyanomethyl)-3-[4-(trifluoromethyl)pyrazol-1-yl]azetidin-1-yl]-[1,2,4]triazolo[1,5-a]pyridin-2-yl]amino]pyrazol-1-yl]acetyl]piperazin-1-yl]-2,2-dimethyl-butanenitrile], for which the Ki is 0.4 nM in test [1] and 1.1 nM in test [3]. Also, the EC50 in test [2] was determined as 44 nM.

As to `CN1CCN(C(=O)Cn2cc(Nc3nc4c(N5CC(CC#N)(n6cc(F)cn6)C5)cccn4n3)cn2)CC1` [Example 19, 2-[3-(4-fluoropyrazol-1-yl)-1-[2-[[1-[2-(4-methylpiperazin-1-yl)-2-oxo-ethyl]pyrazol-4-yl]amino]-[1,2,4]triazolo[1,5-a]pyridin-8-yl]azetidin-3-yl]acetonitrile], the Ki in test [1] was 4.4 nM; in test [3], 4 nM. For the same compound, in test [2], the EC50 was 255 nM.

As to `CN(CC1(C#N)CC1)C1CCN(C(=O)Cn2cc(Nc3nc4c(N5CC(CC#N)(c6cccc(Cl)c6)C5)cccn4n3)cn2)CC1` [Example 100, 1-[[[1-[2-[4-[[8-[3-(3-chlorophenyl)-3-(cyanomethyl)azetidin-1-yl]-[1,2,4]triazolo[1,5-a]pyridin-2-yl]amino]pyrazol-1-yl]acetyl]-4-piperidyl]-methyl-amino]methyl]cyclopropane carbonitrile], the inhibitory constant (Ki) came out at 0.3 nM in test [1] and 1.5 nM in test [3]. In addition, in test [2], the midpoint of the response, the EC50, lay at 26 nM.

On to `CCc1cnn(C2(CC#N)CN(c3cccn4nc(Nc5ccc(C(=O)NCc6ccc(C)nc6)cc5)nc34)C2)c1` [Example 64, 4-[[8-[3-(cyanomethyl)-3-(4-ethylpyrazol-1-yl)azetidin-1-yl]-[1,2,4]triazolo[1,5-a]pyridin-2-yl]amino]-N-[(6-methyl-3-pyridyl)methyl]benzamide], for which the Ki in test [1] worked out at 0.3 nM; in test [3] it was 0.2 nM. Further, the EC50 in test [2] amounted to 15 nM.

Regarding `CC(C)Sc1cnn(C2(CC#N)CN(c3cccn4nc(Nc5cnn(CC(=O)N6CCN(C)CC6)c5)nc34)C2)c1` [Example 105, 2-[3-(4-isopropylsulfanylpyrazol-1-yl)-1-[2-[[1-[2-(4-methylpiperazin-1-yl)-2-oxo-ethyl]pyrazol-4-yl]amino]-[1,2,4]triazolo[1,5-a]pyridin-8-yl]azetidin-3-yl]acetonitrile], the Ki in test [1] worked out at 0.7 nM; in test [3], 1.6 nM. In test [2], the EC50 is 42 nM.

In the case of `CCc1cnn(C2(CC#N)CN(c3cccn4nc(Nc5cnn(CC(=O)N6CCC(CN7CCN(C(=O)OC)CC7)CC6)c5)nc34)C2)c1` [Example 39, methyl4-[[1-[2-[4-[[8-[3-(cyanomethyl)-3-(4-ethylpyrazol-1-yl)azetidin-1-yl]-[1,2,4]triazolo[1,5-a]pyridin-2-yl]amino]pyrazol-1-yl]acetyl]-4-piperidyl]methyl]piperazine-1-carboxylate], the values for the Ki in test [1] and in test [3] were 0.3 nM and 1.6 nM, respectively. The compound further returned an EC50 in test [2] of 24 nM.

In the case of `N#CCC1(n2cc(C(F)(F)F)cn2)CN(c2cccn3nc(Nc4cnn(CCO)c4)nc23)C1` [Example 134, 2-[1-[2-[[1-(2-hydroxyethyl)pyrazol-4-yl]amino]-[1,2,4]triazolo[1,5-a]pyridin-8-yl]-3-[4-(trifluoromethyl)pyrazol-1-yl]azetidin-3-yl]acetonitrile], the Ki in test [1] and in test [3] was 0.3 nM throughout. This compound also displayed a concentration giving a half-maximal response (EC50) in test [2] of 13 nM.

On to `Cc1cc(C2(CC#N)CN(c3cccn4nc(Nc5cnn(CC(=O)N6CCN(C)CC6)c5)nc34)C2)ccc1Cl` [Example 27, 2-[3-(4-chloro-3-methyl-phenyl)-1-[2-[[1-[2-(4-methylpiperazin-1-yl)-2-oxo-ethyl]pyrazol-4-yl]amino]-[1,2,4]triazolo[1,5-a]pyridin-8-yl]azetidin-3-yl]acetonitrile], for which the Ki in test [1] is 0.5 nM; in test [3] it was 1.8 nM. For the same compound, a half-maximal effect in test [2] (EC50) was put at 51 nM.

Turning to `CCc1cnn(C2(CC#N)CN(c3cccn4nc(Nc5ccc(CC(=O)N6CCN(C)CC6)nc5)nc34)C2)c1` [Example 74], the Ki was found to be 0.4 nM in test [1] and 1.8 nM in test [3]. This compound also gave an EC50 in test [2] of 20 nM.

Turning to `CC(C)c1cnn(C2(CC#N)CN(c3cccn4nc(Nc5cn[nH]c5)nc34)C2)c1` [Example 141, 2-[3-(4-isopropylpyrazol-1-yl)-1-[2-(1H-pyrazol-4-ylamino)-[1,2,4]triazolo[1,5-a]pyridin-8-yl]azetidin-3-yl]acetonitrile], the Ki in test [1] and in test [3] was 0.1 nM in each case. This compound registered an EC50 in test [2] of 9 nM.

Take `Cn1cc(Nc2nc3c(N4CC(CC#N)(n5cc(C(F)(F)F)cn5)C4)cccn3n2)cn1` [Example 135, 2-[1-[2-[(l-methylpyrazol-4-yl)amino]-[1,2,4]triazolo[1,5-a]pyridin-8-yl]-3-[4-(trifluoromethyl)pyrazol-1-yl]azetidin-3-yl]acetonitrile]: the Ki in test [1] was 0.3 nM; in test [3] it was 0.5 nM. Besides, in test [2], it took 10 nM to reach a half-maximal effect (EC50).

Turning to `CCc1cnn(C2(CC#N)CN(c3cccn4nc(Nc5cnn(CC(=O)N6CCC(CN7CCOCC7)CC6)c5)nc34)C2)c1` [Example 53, 2-[3-(4-ethylpyrazol-1-yl)-1-[2-[[1-[2-[4-(morpholinomethyl)-1-piperidyl]-2-oxo-ethyl]pyrazol-4-yl]amino]-[1,2,4]triazolo[1,5-a]pyridin-8-yl]azetidin-3-yl]acetonitrile], the figures for the inhibitory constant (Ki) in test [1] and in test [3] were 0.9 nM and 0.6 nM, respectively. Besides, the concentration for a half-maximal effect (EC50) in test [2] worked out at 31 nM.

As for `Cc1ccccc1-c1cnn(C2(CC#N)CN(c3cccn4nc(Nc5cnn(CC(=O)N6CCN(C)CC6)c5)nc34)C2)c1` [Example 63], the Ki in test [1] and in test [3] was 0.2 nM in each case. In addition, the half-maximal effective concentration (EC50) in test [2] is 13 nM.

With `N#CCC1(n2cc(C(F)(F)F)cn2)CN(c2cccn3nc(Nc4cnn(CC(=O)N5CCN(CCO)CC5)c4)nc23)C1` [Example 125, formic acid;2-[1-[2-[[1-[2-[4-(2-hydroxyethyl)piperazin-1-yl]-2-oxo-ethyl]pyrazol-4-yl]amino]-[1,2,4]triazolo[1,5-a]pyridin-8-yl]-3-[4-(trifluoromethyl)pyrazol-1-yl]azetidin-3-yl]acetonitrile], the Ki in test [1] and in test [3] was 0.4 nM each time. The compound further came in with a concentration for a half-maximal effect (EC50) in test [2] of 21 nM.

On to `N#CCC1(c2cccc(Cl)c2)CN(c2cccn3nc(Nc4cnn(CC(=O)N5CCN(CCN6CCOCC6)CC5)c4)nc23)C1` [Example 82, 2-[3-(3-chlorophenyl)-1-[2-[[1-[2-[4-(2-morpholinoethyl)piperazin-1-yl]-2-oxo-ethyl]pyrazol-4-yl]amino]-[1,2,4]triazolo[1,5-a]pyridin-8-yl]azetidin-3-yl]acetonitrile], for which the Ki in test [1] and in test [3] was 0.2 nM each time. Further, the EC50 in test [2] is 22 nM.

On to `CC(=O)N1CCN(CC2CCN(C(=O)Cn3cc(Nc4nc5c(N6CC(CC#N)(c7cccc(Cl)c7)C6)cccn5n4)cn3)CC2)CC1` [Example 95, 2-[1-[2-[[1-[2-[4-[(4-acetylpiperazin-1-yl)methyl]-1-piperidyl]-2-oxo-ethyl]pyrazol-4-yl]amino]-[1,2,4]triazolo[1,5-a]pyridin-8-yl]-3-(3-chlorophenyl)azetidin-3-yl]acetonitrile], for which the figures for the Ki in test [1] and in test [3] were 0.4 nM and 1.3 nM, respectively. The compound further had an EC50 in test [2] of 41 nM.

`CN1CCN(C(=O)Cn2cc(Nc3nc4c(N5CC(CC#N)(n6cc(C(F)(F)F)cn6)C5)cccn4n3)cn2)CC1` [Example 15]: the inhibition constant Ki in test [1] stood at 2.2 nM; in test [3], 9.4 nM. The same compound yielded an EC50 in test [2] greater than 1000 nM.

On to `CCc1cnn(C2(CC#N)CN(c3cccn4nc(Nc5cnn(CC(=O)N6CCN(C7COC7)CC6)c5)nc34)C2)c1` [Example 32, 2-[3-(4-ethylpyrazol-1-yl)-1-[2-[[1-[2-[4-(oxetan-3-yl)piperazin-1-yl]-2-oxo-ethyl]pyrazol-4-yl]amino]-[1,2,4]triazolo[1,5-a]pyridin-8-yl]azetidin-3-yl]acetonitrile;formic acid], for which the results for the Ki in test [1] and in test [3] were 0.4 nM and 0.2 nM, respectively. Also, the EC50 in test [2] turned out to be 19 nM.

On to `CCc1cnn(C2(CC#N)CN(c3cccn4nc(Nc5cccc(C(=O)N6CCN(C)CC6)c5)nc34)C2)c1` [Example 75, 2-[3-(4-ethylpyrazol-1-yl)-1-[2-[3-(4-methylpiperazine-1-carbonyl)anilino]-[1,2,4]triazolo[1,5-a]pyridin-8-yl]azetidin-3-yl]acetonitrile], for which the inhibition constant Ki is 0.4 nM in test [1] and 2 nM in test [3]. The compound further showed an EC50 in test [2] of 26 nM.

In the case of `CN1CCN(C(=O)c2cc(Nc3nc4c(N5CC(CC#N)(n6cc(C(F)(F)F)cn6)C5)cccn4n3)ccn2)CC1` [Example 111, 2-[1-[2-[[2-(4-methylpiperazine-1-carbonyl)-4-pyridyl]amino]-[1,2,4]triazolo[1,5-a]pyridin-8-yl]-3-[4-(trifluoromethyl)pyrazol-1-yl]azetidin-3-yl]acetonitrile], the results for the Ki in test [1] and in test [3] were 0.7 nM and 0.4 nM, respectively. Further, the EC50 in test [2] came out at 39 nM.

One may read the Ki as the equilibrium dissociation constant of an inhibitor or competing ligand from its target. One may read the EC50 as the concentration that produces a half-maximal response.

Values taken from US20230242530A1, “8-(AZETIDIN-1-YL)-[1,2,4]TRIAZOLO[1,5-A]PYRIDINYL COMPOUNDS, COMPOSITIONS AND METHODS OF USE THEREOF” (Genentech, Inc., priority 2016, published 2023).
